Molecular target: T1, ALK5 kinase (Homo sapiens, UniProt P36897)
T1 construct: GST; purchased Thermo Fisher Scientific Solutions
T1 sequence (P36897 34-503): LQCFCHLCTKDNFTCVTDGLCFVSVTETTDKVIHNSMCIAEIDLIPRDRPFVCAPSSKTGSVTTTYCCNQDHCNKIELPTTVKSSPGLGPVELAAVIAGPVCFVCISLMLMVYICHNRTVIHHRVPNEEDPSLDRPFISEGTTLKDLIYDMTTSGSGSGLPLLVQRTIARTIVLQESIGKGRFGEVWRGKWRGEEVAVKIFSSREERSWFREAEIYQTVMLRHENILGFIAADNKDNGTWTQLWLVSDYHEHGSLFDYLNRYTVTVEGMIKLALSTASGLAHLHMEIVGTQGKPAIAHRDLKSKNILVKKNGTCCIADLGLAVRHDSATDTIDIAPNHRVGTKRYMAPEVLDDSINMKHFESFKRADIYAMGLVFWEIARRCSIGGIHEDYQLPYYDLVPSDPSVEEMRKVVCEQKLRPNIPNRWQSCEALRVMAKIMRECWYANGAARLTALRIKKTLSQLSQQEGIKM
Test: Activity inhibition test on ALK5 enzyme (LanthaScreen Eu binding kinase assay)
Conditions: kinase tracer 178, 60 minutes at room temperature
Procedure, shortened: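 TR-FRET tracer-displacement format with final 5 nM ALK5, 2 nM Eu-GST antibody and 10 nM kinase tracer 178. Compound dilution series ran 1 μM–0.0001 μM, incubated 60 min at room temperature with stirring. Fluorescence was read ([…]), and IC50 came from percent inhibition versus control.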

Cc1cccc(-n2nc(C(=O)Nc3ccc(S(C)(=O)=O)cc3)cc2-c2ccnc3ccccc23)n1 [Example 211, 1-(6-methylpyridin-2-yl)-N-(4-(methylsulfonyl)phenyl)-5-(quinolin-4-yl)-1H-pyrazole-3-carboxyamide]
IC50: < 10 nM

COc1ccc(NC(=O)c2cc(-c3ccnc4ccccc34)n(-c3cccc(C)n3)n2)cn1 [Example 212, N-(6-methoxypyridin-3-yl)-1-(6-methylpyridin-2-yl)-5-(quinolin-4-yl)-1H-pyrazole-3-carboxyamide]
IC50: 36 nM

Cc1cccc(-n2nc(C(=O)Nc3ccc(Cl)nc3)cc2-c2ccnc3ccccc23)n1 [Example 213, N-(6-chloropyridin-3-yl)-1-(6-methylpyridin-2-yl)-5-(quinolin-4-yl)-1H-pyrazole-3-carboxyamide]
IC50: 23 nM

Cc1cccc(-n2nc(C(=O)Nc3ccc4c(c3)OCO4)cc2-c2ccnc3ccccc23)n1 [Example 214, N-(benzo[d][1,3]dioxol-5-yl)-1-(6-methylpyridin-2-yl)-5-(quinolin-4-yl)-1H-pyrazole-3-carboxyamide]
IC50: 30 nM

COc1ccc(NC(=O)c2cc(-c3ccnc4ccccc34)n(-c3cccc(C)n3)n2)cc1F [Example 215, N-(3-fluoro-4-methoxyphenyl)-1-(6-methylpyridin-2-yl)-5-(quinolin-4-yl)-1H-pyrazole-3-carboxyamide]
IC50: 91 nM

COc1ccc(NC(=O)c2cc(-c3ccnc4ccccc34)n(-c3cccc(C)n3)n2)c(F)c1 [Example 216, N-(2-fluoro-4-methoxyphenyl)-1-(6-methylpyridin-2-yl)-5-(quinolin-4-yl)-1H-pyrazole-3-carboxyamide]
IC50: ~100 nM

COCCOc1ccc(NC(=O)c2cc(-c3ccnc4ccccc34)n(-c3cccc(C)n3)n2)cc1 [Example 217, N-(4-(2-methoxyethoxy)phenyl)-1-(6-methylpyridin-2-yl)-5-(quinolin-4-yl)-1H-pyrazole-3-carboxyamide]
IC50: 18 nM

Cc1cccc(-n2nc(C(=O)Nc3ccc(S(=O)(=O)C4CC4)cc3)cc2-c2ccc3nonc3c2)n1 [Example 218, 5-(benzo[c][1,2,5]oxadiazol-5-yl)-N-(4-(cyclopropylsulfonyl)phenyl)-1-(6-methylpyridin-2-yl)-1H-pyrazole-3-carboxyamide]
IC50: 10 to 100 nM

Cc1cccc(-n2nc(C(=O)Nc3ccccc3F)cc2-c2ccc3ncoc3c2)n1 [Example 219, 5-(benzo[d]oxazol-6-yl)-N-(2-fluorophenyl)-1-(6-methylpyridin-2-yl)-1H-pyrazole-3-carboxyamide]
IC50: 27 nM

Cc1cccc(-n2nc(C(=O)Nc3ccc(S(=O)(=O)C4CC4)cc3)cc2-c2ccc3ncoc3c2)n1 [Example 220]
IC50: 3.2 nM

Cc1cccc(-n2nc(C(=O)NC3CC3)cc2-c2ccc(F)c(-c3cnn(CCO)c3)c2)n1 [Example 221, N-cyclopropyl-5-(4-fluoro-3-(1-(2-hydroxyethyl)-1H-pyrazol-4-yl)phenyl)-1-(6-methylpyridin-2-yl)-1H-pyrazole-3-carboxyamide]
IC50: 4.3 nM

Cc1cccc(-n2nc(C(=O)Nc3cn[nH]c3)cc2-c2ccc(F)c(-c3cnn(CCO)c3)c2)n1 [Example 222, N-(1H-pyrazol-4-yl)-5-(4-fluoro-3-(1-(2-hydroxyethyl)-1H-pyrazol-4-yl)phenyl)-1-(6-methylpyridin-2-yl)-1H-pyrazole-3-carboxyamide]
IC50: 1 nM

Cc1cccc(-n2nc(C(=O)Nc3cnn(C)c3)cc2-c2ccc(F)c(-c3cnn(CCO)c3)c2)n1 [Example 223, N-(1-methyl-1H-pyrazol-4-yl)-5-(4-fluoro-3-(1-(2-hydroxyethyl)-1H-pyrazol-4-yl)phenyl)-1-(6-methylpyridin-2-yl)-1H-pyrazole-3-carboxyamide]
IC50: 2.8 nM

Cc1cccc(-n2nc(C(=O)Nc3cnn(S(C)(=O)=O)c3)cc2-c2ccc(F)c(-c3cnn(CCO)c3)c2)n1 [Example 224, N-(1-(methylsulfonyl)-1H-pyrazol-4-yl)-5-(4-fluoro-3-(1-(2-hydroxyethyl)-1H-pyrazol-4-yl)phenyl)-1-(6-methylpyridin-2-yl)-1H-pyrazole-3-carboxyamide]
IC50: 3.1 nM

Cc1cccc(-n2nc(C(=O)Nc3ccc(Cl)cc3)cc2-c2ccc(F)c(-c3cnn(CCO)c3)c2)n1 [Example 225, N-(4-chlorophenyl)-5-(4-fluoro-3-(1-(2-hydroxyethyl)-1H-pyrazol-4-yl)phenyl)-1-(6-methylpyridin-2-yl)-1H-pyrazole-3-carboxyamide]
IC50: 33 nM

Cc1cccc(-n2nc(C(=O)Nc3ccc(S(C)(=O)=O)cc3)cc2-c2ccc(F)c(-c3cnn(CCO)c3)c2)n1 [Example 226, N-(4-(methylsulfonyl)phenyl)-5-(4-fluoro-3-(1-(2-hydroxyethyl)-1H-pyrazol-4-yl)phenyl)-1-(6-methylpyridin-2-yl)-1H-pyrazole-3-carboxyamide]
IC50: 4.7 nM

Cc1cccc(-n2nc(C(=O)Nc3ccccc3F)cc2-c2cc3cnccc3s2)c1 [Example 227, N-(2-fluorophenyl)-5-(thieno[3,2,c]pyridin-2-yl)-1-(m-tolyl)-1H-pyrazole-3-carboxyamide]
IC50: ~100 nM

— US10954232B2, “Pyrazole derivative as ALK5 inhibitor and uses thereof” (HANMI PHARMACEUTICAL CO., LTD., priority 2016, dated 2021)
